Earlier results on four compounds are cited in patent US20140147496A1, “COMPOSITION AND METHOD FOR FERTILITY THERAPY USING NUTRITIONAL SUPPLEMENTS” (FAIRHAVEN HEALTH, LLC, priority 2009, published 2014).

Data set [1] has as its system patients with idiopathic asthenospermia. To be noted: 3 g/d.
For data set [2], the system named is infertile patients. The conditions noted are these: 2 g/day, two month cross-over, excluding outliers.
Data set [3] relates to patients with idiopathic asthenospermia. To be noted: between baseline, 12 week, or 24 weeks.
Data set [4] deals with Patients with inflammatory abacterial prostatovesiculoepididymitis (PVE). The conditions noted are these: following a 3-month washout period.
Data set [5] concerns infertile patients. To be noted: 60 mg, mean 103 days, 17 infertile patients.
Data set [6] deals with idiopathic asthenozoospermic infertile patients. To be noted: after administration.
For data set [7], the system named is Infertile men with idiopathic asthenozoospermia. To be noted: oral.

With `CC(=O)O[C@H](CC(=O)[O-])C[N+](C)(C)C` [LAC, L-acetyl-carnitine], in data set [1], the sperm cell motility result is on record as “increased”.
Take `C[N+](C)(C)C[C@H](O)CC(=O)[O-]` [L-carnitine]: the “semen quality over placebo (concentration, total and forward motility)” value in the data set with infertile patients [2] was “statistically significant improvement”.
For `C[N+](C)(C)CC(O)CC(=O)[O-]` (stereo not shown) [carnitine], in data set [3], the “motility or total motile sperm counts” value is listed as “no significant differences”. In addition, in data set [4], the “production of reactive oxygen species” value is “highest reduction”; the “sperm motility and viability” value is given as “increased”.
`COC1=C(OC)C(=O)C(C/C=C(\C)CC/C=C(\C)CC/C=C(\C)CC/C=C(\C)CC/C=C(\C)CC/C=C(\C)CC/C=C(\C)CC/C=C(\C)CC/C=C(\C)CCC=C(C)C)=C(C)C1=O` [Coenzyme Q10]: in the data set on infertile patients [5], the standard sperm parameters result is listed as “no significant changes”. Also, in the data set on infertile patients [5] (p<0.05), the fertilization rate entry is recorded as “significant improvement”. Further, in data set [6], the “Coenzyme Q10 in seminal plasma and in sperm cells” value is recorded as “significant increase”; the sperm motility entry was “improvement in sperm motility”. For the same compound, the motility after incubation entry with sperm samples (samples with initial normal motility, 5 μM or 50 μM, 24 h) was “no significant change”. Besides, in the data set with sperm samples (sperm samples from 22 asthenospermic men, in vitro, 50 μM), the motility entry is listed as “significant increases in motility”. Also, in data set [7] (after 6 months of therapy), the “Coenzyme Q10 levels in seminal plasma and in sperm cells” value was “increased significantly”. For the same compound, the sperm cell motility result in data set [7] (after 6 months, computer-assisted analysis) is recorded as “significant increase”.
